Reference: patent US5618724A, “Antibiotics GE 37468 A, B and C” (Gruppo Lepetit SpA, priority 1996, dated 1997)

Columns and labels:
[1] = tested on: Propionibacterium acnes ATCC 6919; assay: MIC by broth microdilution; type: cell-based; details: Wilkins-Chalgren broth, 10^5 CFU/ml, 48 h, N2:CO2:H2 (80:10:10)
[2] = tested on: Staphylococcus aureus L165; details: Iso-Sensitest broth, 10^4 CFU/ml, 20-24 h, 37° C.
[3] = tested on: Staphylococcus aureus Smith; details: Iso-Sensitest broth, 10^4 CFU/ml, 20-24 h, 37° C.
[4] = tested on: Staphylococcus epidermidis ATCC 12228; details: Iso-Sensitest broth, 10^4 CFU/ml, 20-24 h, 37° C.
[5] = tested on: Staphylococcus haemolyticus L602; details: Iso-Sensitest broth, 10^4 CFU/ml, 20-24 h, 37° C.
[6] = tested on: Enterococcus faecalis ATCC 7080; details: Iso-Sensitest broth, 10^4 CFU/ml, 20-24 h, 37° C.
[7] = tested on: Clostridium perfringens L290; details: Wilkins-Chalgren broth, 10^5 CFU/ml, 48 h, N2:CO2:H2 (80:10:10)

Structure (SMILES) | M.I.C. [1] | M.I.C. [2] | M.I.C. [3] | M.I.C. [4] | M.I.C. [5] | M.I.C. [6] | M.I.C. [7]
C=C(NC(=O)c1csc(-c2ccc3c(n2)-c2csc(n2)-c2csc(n2)C2C(C)CC(O)N2C(=O)C(Cc2ccc(O)cc2)NC(=O)C2CSC(=N2)C(Cc2ccccc2)NC(=O)c2csc(n2)C(CC(N)=O)NC(=O)c2nc-3oc2C)n1)C(N)=O (centres unmarked) [GE37468C] | 0.616 microgram/ml | 0.03 microgram/ml | 0.03 microgram/ml | 0.25 microgram/ml | 0.13 microgram/ml | 0.03 microgram/ml | 0.016 microgram/ml
Cc1oc2nc1C(=O)NC(CC(N)=O)c1nc(cs1)C(=O)NC(Cc1ccccc1)C1=NC(CS1)C(=O)NC(Cc1ccc(O)cc1)C(=O)N1C(O)CC(C)C1c1nc(cs1)-c1nc(cs1)-c1nc(-c3nc(C(N)=O)cs3)ccc1-2 (centres unmarked) [GE37468B] | 0.016 microgram/ml | 0.03 microgram/ml | 0.03 microgram/ml | 0.06 microgram/ml | 0.13 microgram/ml | 0.03 microgram/ml | 0.016 microgram/ml
